{"source": "patent US20130095160A1", "about": "“RESORBABLE POLYSTATIN BIOMATERIALS” (priority 2011, published 2013)", "origin": "cited, not measured here", "key": {"eNOS": {"test_system": "eNOS", "details": "12 mg (or 10(−5) M lovastatin); previously shown"}, "SR-BI receptor": {"molecular_target": "T1, SR-BI receptor (Homo sapiens, UniProt Q8WTV0)", "T1 sequence (Q8WTV0 1-552)": "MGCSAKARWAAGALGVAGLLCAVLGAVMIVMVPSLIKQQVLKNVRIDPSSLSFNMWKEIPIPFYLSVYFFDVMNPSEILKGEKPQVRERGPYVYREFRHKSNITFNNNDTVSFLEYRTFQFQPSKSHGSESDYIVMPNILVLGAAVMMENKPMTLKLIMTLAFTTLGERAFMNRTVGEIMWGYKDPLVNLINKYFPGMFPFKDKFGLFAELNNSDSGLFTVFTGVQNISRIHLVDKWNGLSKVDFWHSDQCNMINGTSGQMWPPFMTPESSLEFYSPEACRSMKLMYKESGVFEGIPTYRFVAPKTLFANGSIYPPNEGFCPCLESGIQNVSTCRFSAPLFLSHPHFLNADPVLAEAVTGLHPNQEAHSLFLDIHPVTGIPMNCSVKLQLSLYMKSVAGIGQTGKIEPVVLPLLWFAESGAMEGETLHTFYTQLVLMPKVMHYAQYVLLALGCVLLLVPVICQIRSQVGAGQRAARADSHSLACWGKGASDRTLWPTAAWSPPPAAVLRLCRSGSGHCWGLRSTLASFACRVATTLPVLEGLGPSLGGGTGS", "details": "via activation of the SR-BI receptor"}}, "data": [{"smiles": "CC[C@H](C)C(=O)O[C@H]1C[C@@H](C)C=C2C=C[C@H](C)[C@H](CC[C@@H]3C[C@@H](O)CC(=O)O3)[C@H]21", "note": "[lovastatin]", "values": [{"measurement": "eNOS activation in vitro", "setting": "eNOS", "result": "maximally effective"}, {"measurement": "efficiency at generating EDNO compared with HDL", "setting": "SR-BI receptor", "result": "more efficient than HDL"}]}]}
